Bounds are passed on as bounds.

One may read the IC50 as the concentration that inhibits the measured activity by half.

The target of the experiment is T1, USP28 (His-tagged USP28-FL-mammalian) (Homo sapiens, UniProt Q96RU2).
T1 construct: Expression of USP28 (1-1077)-TEV-6*His (pTT5 vector) was carried out in Expi293f cells; made in house; host or cells: Expi293F cells (pTT5 vector)
T1 sequence (Q96RU2 1-1077): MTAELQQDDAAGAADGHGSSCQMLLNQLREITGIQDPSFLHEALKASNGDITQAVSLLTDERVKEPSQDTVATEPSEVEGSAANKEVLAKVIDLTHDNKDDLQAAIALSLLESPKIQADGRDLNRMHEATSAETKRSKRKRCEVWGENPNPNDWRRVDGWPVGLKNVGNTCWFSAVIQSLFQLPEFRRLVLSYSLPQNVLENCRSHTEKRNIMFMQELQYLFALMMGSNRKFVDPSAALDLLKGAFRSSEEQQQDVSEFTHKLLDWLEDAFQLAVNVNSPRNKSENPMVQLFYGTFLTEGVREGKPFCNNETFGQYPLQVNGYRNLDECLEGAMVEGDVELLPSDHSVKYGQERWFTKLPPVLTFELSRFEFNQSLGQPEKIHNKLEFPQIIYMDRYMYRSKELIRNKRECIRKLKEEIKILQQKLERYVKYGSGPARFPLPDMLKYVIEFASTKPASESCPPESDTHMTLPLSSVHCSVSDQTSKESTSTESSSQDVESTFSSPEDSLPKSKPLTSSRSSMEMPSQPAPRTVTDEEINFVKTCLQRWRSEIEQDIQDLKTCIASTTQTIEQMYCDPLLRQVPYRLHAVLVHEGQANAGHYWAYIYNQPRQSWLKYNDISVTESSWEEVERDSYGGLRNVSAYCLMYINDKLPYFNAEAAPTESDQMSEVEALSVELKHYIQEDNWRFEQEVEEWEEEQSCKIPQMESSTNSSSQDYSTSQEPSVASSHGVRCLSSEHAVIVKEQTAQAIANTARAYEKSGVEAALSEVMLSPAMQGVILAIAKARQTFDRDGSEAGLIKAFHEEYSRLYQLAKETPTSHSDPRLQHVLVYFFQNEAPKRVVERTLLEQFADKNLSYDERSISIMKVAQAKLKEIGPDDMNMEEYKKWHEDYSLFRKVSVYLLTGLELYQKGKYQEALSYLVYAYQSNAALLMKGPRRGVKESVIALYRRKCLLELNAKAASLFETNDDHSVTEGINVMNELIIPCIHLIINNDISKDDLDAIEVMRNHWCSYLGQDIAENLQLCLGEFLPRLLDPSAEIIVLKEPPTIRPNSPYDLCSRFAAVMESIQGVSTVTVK
The experiment is described as follows: Ubiquitin-Rhodamine 110 Assay for USP28 Activity, Example A-1(a). It is filed as biochemical. The note with it: Ubiquitin-Rhodamine 110 assay, read-out: USP28 A-1(a) IC50 range. The procedure, abridged:
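IC50s were fitted with a 4-parameter logistic to percent inhibition relative to no-enzyme and DMSO controls, using Rhodamine 110 fluorescence (485/535 nm) released from 25 nM Ub-Rh110. The enzyme was Expi293F-expressed USP28-FL-His at […], preincubated 30 min with compound (10-point, 25 μM top) in Tris pH 8.0 buffer containing BGG and Triton X-100. Substrate turnover ran 45 min at room temperature and was stopped with 10 mM citric acid.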
As for `Cc1ccc2c(N)c(C(=O)N[C@H]3COc4cc(N5CCNCC5)ccc4[C@H]3C)sc2n1` (single isomer, unassigned) [Example 11-15], the IC50 is above 2000 nM.
In the case of `Cc1ccc2c(N)c(C(=O)N[C@H]3COc4cc(N5CCNCC5)ccc4[C@@H]3C)sc2n1` (single isomer, unassigned) [Example 11-16] it was above 2000 nM.
In the case of `Cc1ccc2c(N)c(C(=O)N[C@H]3COc4cc(N5CCNCC5)ccc4[C@@H]3C)sc2n1` (single isomer, unassigned) [Example 11-17] it was above 2000 nM; in that of `Cc1ccc2c(N)c(C(=O)N[C@@H]3COc4cc(N5CCNCC5)ccc4[C@@H]3C)sc2n1` (single isomer, unassigned) [Example 11-18], 200 to 2000 nM; in that of `Cc1cnc2c(N)c(C(=O)N[C@@H]3CCc4cc(N5CCNCC5)ccc4C3)sc2n1` (single isomer, unassigned) [Example 11-20], 200 to 2000 nM.
Consider `Cc1ccc2c(N)c(C(=O)N[C@H]3CCc4cc(N5CCNCC5)ccc4C3)sc2n1` (single isomer, unassigned) [Example 11-21], for which the IC50 is 200 to 2000 nM.
Take `Cc1ccc2c(N)c(C(=O)N[C@@H]3CCc4cc(N5CCNCC5)ccc4C3)sc2n1` (single isomer, unassigned) [Example 11-22]: the IC50 lay in the range of 50 to 200 nM.
Take `CN[C@H]1CCN(c2ccc3c(c2)CC[C@H](NC(=O)c2sc4nc(C)cnc4c2N)C3)C1` (single isomer, unassigned) [Example 11-25]: the IC50 lay within 50 to 200 nM.
Regarding `CN[C@H]1CCN(c2ccc3c(c2)CC[C@@H](NC(=O)c2sc4nc(C)cnc4c2N)C3)C1` (single isomer, unassigned) [Example 11-26], the IC50 was above 2000 nM.
Take `CN[C@@H]1CCN(c2ccc3c(c2)CC[C@H](NC(=O)c2sc4nc(C)cnc4c2N)C3)C1` (single isomer, unassigned) [Example 11-27]: the IC50 lay within 50 to 200 nM.
Consider `CN[C@@H]1CCN(c2ccc3c(c2)CC[C@@H](NC(=O)c2sc4nc(C)cnc4c2N)C3)C1` (single isomer, unassigned) [Example 11-28], for which the IC50 lay within 200 to 2000 nM.
In the case of `Cc1cnc2c(N)c(C(=O)N[C@H]3CCc4cc(N5C[C@@H]6C[C@H]5CN6)ccc4C3)sc2n1` (single isomer, unassigned) [Example 11-29] it was 50 to 200 nM; in that of `Cc1cnc2c(N)c(C(=O)N[C@@H]3CCc4cc(N5C[C@@H]6C[C@H]5CN6)ccc4C3)sc2n1` (single isomer, unassigned) [Example 11-30], 200 to 2000 nM; in that of `Cc1cnc2c(N)c(C(=O)N[C@H]3CCc4cc(N5C[C@H]6C[C@@H]5CN6)ccc4C3)sc2n1` (single isomer, unassigned) [Example 11-31], 50 to 200 nM.
The figure for `Cc1cnc2c(N)c(C(=O)N[C@@H]3CCc4cc(N5C[C@H]6C[C@@H]5CN6)ccc4C3)sc2n1` (single isomer, unassigned) [Example 11-32] is 200 to 2000 nM; for `Cc1nc2sc(C(=O)N[C@H]3CCc4cc(N5CCNCC5)ccc4C3)c(N)c2s1` (single isomer, unassigned) [Example 11-33] it is 200 to 2000 nM.
For the compound `Cc1nc2sc(C(=O)N[C@@H]3CCc4cc(N5CCNCC5)ccc4C3)c(N)c2s1` (single isomer, unassigned) [Example 11-34], the IC50 is 50 to 200 nM.
Take `Cc1cnc2c(N)c(C(=O)N[C@@H]3CCc4cc(N5CCNCC5)cc(F)c4C3)sc2n1` (single isomer, unassigned) [Example 11-37]: the IC50 fell in the range of 200 to 2000 nM.
In the case of `Cc1cnc2c(N)c(C(=O)N[C@H]3CCc4cc(N5CCNCC5)cc(F)c4C3)sc2n1` (single isomer, unassigned) [Example 11-38], the IC50 lay in the range of 50 to 200 nM.
In the case of `Cc1ccc2c(N)c(C(=O)N[C@H]3CCc4cc(N5CC6CNCC(C5)O6)cc(F)c4C3)sc2n1` (single isomer, unassigned) [Example 11-39], the half-maximal inhibitory concentration (IC50) lay within 200 to 2000 nM.
In the case of `Cc1ccc2c(N)c(C(=O)N[C@@H]3CCc4c(C#N)c(N5CCNCC5)cc(F)c4C3)sc2n1` (single isomer, unassigned) [Example 14-9] it was 200 to 2000 nM; in that of `Cc1ccc2c(N)c(C(=O)N[C@H]3CCc4c(C#N)c(N5CCNCC5)cc(F)c4C3)sc2n1` (single isomer, unassigned) [Example 14-10], 1 to 50 nM.
The figure for `Cc1cnc2c(N)c(C(=O)N[C@@H]3CCc4c(C#N)c(N5CCNCC5)cc(F)c4C3)sc2n1` (single isomer, unassigned) [Example 14-11] is 1 to 50 nM.
In the case of `Cc1cnc2c(N)c(C(=O)N[C@H]3CCc4c(C#N)c(N5CCNCC5)cc(F)c4C3)sc2n1` (single isomer, unassigned) [Example 14-12] it was 200 to 2000 nM; in that of `Cc1nc2sc(C(=O)N[C@@H]3CCc4c(C#N)c(N5CCNCC5)cc(F)c4C3)c(N)c2s1` (single isomer, unassigned) [Example 14-13], 200 to 2000 nM.
As for `Cc1nc2sc(C(=O)N[C@H]3CCc4c(C#N)c(N5CCNCC5)cc(F)c4C3)c(N)c2s1` (single isomer, unassigned) [Example 14-14], the IC50 lay within 1 to 50 nM.
With `Cc1ccc2c(N)c(C(=O)N[C@H]3CCc4c(C#N)c(N5CC6CNCC(C5)O6)cc(F)c4C3)sc2n1` (single isomer, unassigned) [Example 14-15], the IC50 fell in the range of 1 to 50 nM.
In the case of `Cc1ccc2c(N)c(C(=O)N[C@@H]3CCc4c(C#N)c(N5CC6CNCC(C5)O6)cc(F)c4C3)sc2n1` (single isomer, unassigned) [Example 14-16] it was 50 to 200 nM; in that of `Cc1ccc2c(N)c(C(=O)N[C@H]3CCc4c(C#N)c(N5CC6CCC(C5)N6)cc(F)c4C3)sc2n1` (single isomer, unassigned) [Example 14-17], 1 to 50 nM.
As to `Cc1ccc2c(N)c(C(=O)N[C@@H]3CCc4c(C#N)c(N5CC6CCC(C5)N6)cc(F)c4C3)sc2n1` (single isomer, unassigned) [Example 14-18], the IC50 lay within 50 to 200 nM.
For the compound `Cc1cnc2c(N)c(C(=O)N[C@H]3CCc4c(C#N)c(N5CC6CCC(C5)N6)cc(F)c4C3)sc2n1` (single isomer, unassigned) [Example 14-19], the IC50 is 1 to 50 nM.
The figure for `Cc1cnc2c(N)c(C(=O)N[C@@H]3CCc4c(C#N)c(N5CC6CCC(C5)N6)cc(F)c4C3)sc2n1` (single isomer, unassigned) [Example 14-20] is 200 to 2000 nM; for `Cc1nc2sc(C(=O)N[C@H]3CCc4c(C#N)c(N5CC6CCC(C5)N6)cc(F)c4C3)c(N)c2s1` (single isomer, unassigned) [Example 14-21] it is 1 to 50 nM.
As to `CO[C@H]1CN(c2cc(F)c3c(c2C#N)CC[C@H](NC(=O)c2sc4nc(C)ccc4c2N)C3)C[C@@H]1N` (single isomer, unassigned) [Example 14-23], the IC50 was in the range of 1 to 50 nM.
The figure for `CO[C@H]1CN(c2cc(F)c3c(c2C#N)CC[C@@H](NC(=O)c2sc4nc(C)ccc4c2N)C3)C[C@@H]1N` (single isomer, unassigned) [Example 14-24] is 200 to 2000 nM; for `Cc1cnc2c(N)c(C(=O)N[C@@H]3CCc4c(ccc(N5CCNCC5)c4F)C3)sc2n1` (single isomer, unassigned) [Example 21-9] it is 50 to 200 nM; for `Cc1cnc2c(N)c(C(=O)N[C@H]3CCc4c(ccc(N5CCNCC5)c4F)C3)sc2n1` (single isomer, unassigned) [Example 21-10] it is above 2000 nM.
In the case of `Cc1cnc2c(N)c(C(=O)N[C@@H]3CCc4cc(N5CCNCC5)c(F)cc4C3)sc2n1` (single isomer, unassigned) [Example 21-11] it was 200 to 2000 nM; in that of `Cc1cnc2c(N)c(C(=O)N[C@H]3CCc4cc(N5CCNCC5)c(F)cc4C3)sc2n1` (single isomer, unassigned) [Example 21-12], 1 to 50 nM; in that of `Cc1ccc2c(N)c(C(=O)N[C@H]3CCc4c(F)c(N5CC6CCC(C5)N6)cc(F)c4C3)sc2n1` (single isomer, unassigned) [Example 22-5], 1 to 50 nM.
The figure for `[2H]C1([2H])c2c(F)cc(N3CCNCC3)cc2OC[C@@H]1NC(=O)c1sc2nc(C)ccc2c1N` (single isomer, unassigned) [Example 33-1] is 1 to 50 nM.

The values above are taken from patent US12162888B2, “Carboxamides as ubiquitin-specific protease inhibitors” (Valo Early Discovery, Inc., priority 2018, dated 2024).
